ChEMBL document CHEMBL3259645, “Design and synthesis of spirocyclic compounds as HCV replication inhibitors by targeting viral NS4B protein” (Bioorg Med Chem Lett, 2014)
In brackets after ≈: the same amount, converted by molar mass.

How the values were obtained:
Hepatitis C virus [1] = experiment: Antiviral activity against Hepatitis C virus genotype 1a infected in human HuH7 cells assessed as inhibition of replicon replication after 48 hrs by luciferase reporter gene assay; format: functional, cell-based, Hepacivirus hominis; conditions: subtype 1a, Huh-7, 48 h
Hepatitis C virus [2] = experiment: Antiviral activity against Hepatitis C virus genotype 1b infected in human HuH7 cells assessed as inhibition of replicon replication after 48 hrs by luciferase reporter gene assay; format: functional, cell-based, Hepacivirus hominis; conditions: Huh-7, 48 h
[3] = Cytotoxicity against human HuH7 cells infected with Hepatitis C virus genotype 1b; format: cell-based, Huh-7
[4] = Volume of distribution at steady state in rat at 1 mg/kg, iv and 5 mg/kg, po; format: ADME, organism-based; conditions: in vivo, read-out: Vdss
[5] = Kinetic solubility of the compound at pH 7.4; format: physicochemical; conditions: buffer, read-out: Kinetic_solubility
Hepatitis C virus [6] = experiment: Ratio of EC50 for Hepatitis C virus genotype 1b harboring NS4B H94N mutant infected in human HuH7 cells to EC50 for wild type Hepatitis C virus genotype 1b infected in human HuH7 cells; format: functional, Hepacivirus hominis, Huh-7
[7] = Displacement of biotinylated anti-His antibody from C-terminal 6X His-tagged Hepatitis C virus genotype 1b NS4B expressed in baculovirus-infected Sf9 cells by microplate assay; design: species or system Hepatitis C virus subtype 1b
Hepatitis C virus [8] = experiment: Antiviral activity against Hepatitis C virus genotype 2a; format: functional, Hepacivirus hominis
[9] = AUC (0 to 24 hrs) in rat at 5 mg/kg, po; format: ADME, organism-based; design: time < 24 hr, dose 5 mg/kg, route oral; conditions: plasma
Hepatitis C virus [10] = experiment: Antiviral activity against Hepatitis C virus genotype 1b harboring NS4B V105M mutant infected in human HuH7 cells assessed as inhibition of replicon replication after 48 hrs by luciferase reporter gene assay; format: functional, cell-based, Hepacivirus hominis; conditions: Huh-7, 48 h
Hepatitis C virus [11] = experiment: Ratio of EC50 for Hepatitis C virus genotype 1b harboring NS4B V105M mutant infected in human HuH7 cells to EC50 for wild type Hepatitis C virus genotype 1b infected in human HuH7 cells; format: functional, Hepacivirus hominis, Huh-7
[12] = Half life in rat hepatocytes; format: ADME, cell-based, Hepatocyte
[13] = Oral bioavailability in rat at 5 mg/kg; format: ADME, organism-based; conditions: in vivo
[14] = Cmax in rat at 5 mg/kg, po; format: ADME, organism-based; design: dose 5 mg/kg, route oral; conditions: in vivo
Hepatitis C virus [15] = experiment: Antiviral activity against Hepatitis C virus genotype 1b harboring NS4B H94N mutant infected in human HuH7 cells assessed as inhibition of replicon replication after 48 hrs by luciferase reporter gene assay; format: functional, cell-based, Hepacivirus hominis; conditions: Huh-7, 48 h
[16] = Half life in human hepatocytes; format: ADME, cell-based, Hepatocyte
[17] = Clearance in rat at 1 mg/kg, iv; format: ADME, organism-based; design: dose 1 mg/kg, route intravenous; conditions: in vivo

SMILES | EC50 (Hepatitis C virus [1]) [nM] | EC50 (Hepatitis C virus [2]) [nM] | CC50 [3] [nM] | further results
O=C(c1nn2c(C(F)(F)F)cc(C3CC3)cc2c1Cl)N1CCC2(OCC3(CC3)CO2)C(O)C1 (stereo not given) | 4.3 | 2.2 | > 50000 | 
O=C(c1nc2c(C(F)(F)F)cc(Br)cn2c1Cl)N1CCC(N2CCOC2=O)CC1 | 31.4 | 45.5 |  | 
O=C(c1nn2c(C(F)(F)F)cc(C3CC3)cc2c1Cl)N1CCCC2(C1)OCCCO2 | > 500 | > 500 | > 50000 | 
O=C(c1nn2c(C(F)(F)F)cc(C3CC3)cc2c1Cl)N1CCC2(CC1)OCCO2 | 299 | 161 | > 50000 | 
O=C(c1nn2c(C(F)(F)F)cc(C3CC3)cc2c1Cl)N1CCC2(CC1)OCCCO2 | 33.8 | 6.1 | > 50000 | 
O=C(c1nn2c(C(F)(F)F)cc(C3CC3)cc2c1Cl)N1CCC2(CC1)OCCCCO2 | 46.3 | 8 | > 25000 | 
CC1COC2(CCN(C(=O)c3nn4c(C(F)(F)F)cc(C5CC5)cc4c3Cl)CC2)OC1 | 7.4 | 1.2 | > 50000 | 
CC1(C)COC2(CCN(C(=O)c3nn4c(C(F)(F)F)cc(C5CC5)cc4c3Cl)CC2)OC1 | 23.8 | 9.8 | > 25000 | 
O=C(c1nn2c(C(F)(F)F)cc(C3CC3)cc2c1Cl)N1CCC2(CC1)OCC(c1ccccc1)CO2 | 42.2 | 209 | > 50000 | 
O=C(c1nn2c(C(F)(F)F)cc(C3CC3)cc2c1Cl)N1CCC2(CC1)OCC(O)CO2 | 19.5 | 13.8 | > 50000 | 
O=C1COC2(CCN(C(=O)c3nn4c(C(F)(F)F)cc(C5CC5)cc4c3Cl)CC2)OC1 | 18 | 19.1 | > 50000 | 
O=C(c1nn2c(C(F)(F)F)cc(C3CC3)cc2c1Cl)N1CCC2(CC1)OCC1(CC1)CO2 | 9 | 4.1 | > 50000 | Vd [4]: 4.5 L/kg; solubility kinetic [5]: 105 µg/mL (≈ 223 µM); Ratio EC50 (Hepatitis C virus [6]): 5.9; IC50 [7]: 32 nM; EC50 (Hepatitis C virus [8]): 6840 nM; AUC(0-t) at 24 h [9]: 693 ng·h/mL; EC50 (Hepatitis C virus [10]): 67.6 nM; Ratio EC50 (Hepatitis C virus [11]): 16.5; half-life [12]: < 0.25 h; bioavailability [13]: 29%; Cmax [14]: 254 ng/mL; EC50 (Hepatitis C virus [15]): 24.3 nM; half-life [16]: 0.5 h; clearance [17]: 37.8 mL/min/kg
O=C(c1nn2c(C(F)(F)F)cc(C3CC3)cc2c1Cl)N1CCC2(CC1)OCC1(CCC1)CO2 | 5.1 | 7.6 | > 50000 | 
O=C(c1nn2c(C(F)(F)F)cc(C3CC3)cc2c1Cl)N1CCC2(CC1)OCC1(CO2)CC(O)C1 | 2.2 | 14.2 | > 50000 | 
O=C(c1nn2c(C(F)(F)F)cc(C3CC3)cc2c1Cl)N1CCC2(CC1)OCC1(COC1)CO2 | 14.4 | 3.2 | > 50000 | 
O=C(c1nn2c(C(F)(F)F)cc(C3CC3)cc2c1Cl)N1CCC2(OCC3(CC3)CO2)[C@@H](O)C1 | 32.5 | 8.2 | > 50000 | 
O=C(c1nn2c(C(F)(F)F)cc(C3CC3)cc2c1Cl)N1CCC2(OCC3(CC3)CO2)[C@H](O)C1 | 1.5 | 1.2 | > 50000 | Vd [4]: 0.8 L/kg; solubility kinetic [5]: 323 µg/mL (≈ 665 µM); Ratio EC50 (Hepatitis C virus [6]): 29.9; IC50 [7]: 10.2 nM; EC50 (Hepatitis C virus [8]): 11300 nM; AUC(0-t) at 24 h [9]: 2790 ng·h/mL; EC50 (Hepatitis C virus [10]): 172 nM; Ratio EC50 (Hepatitis C virus [11]): 143; half-life [12]: 0.467 h; bioavailability [13]: > 100%; Cmax [14]: 1130 ng/mL; EC50 (Hepatitis C virus [15]): 35.9 nM; half-life [16]: 0.833 h; clearance [17]: 35.7 mL/min/kg
O=C(c1nn2c(C(F)(F)F)cc(C3CC3)cc2c1Cl)N1CCC2(OCC3(CC3)CO2)C(=O)C1 | 5.1 | 3.8 | > 50000 | 
O=C1NCC2(CCN(C(=O)c3nn4c(C(F)(F)F)cc(C5CC5)cc4c3Cl)CC2)O1 | 166 | 55.4 | > 50000 | 
CN1CC2(CCN(C(=O)c3nn4c(C(F)(F)F)cc(C5CC5)cc4c3Cl)CC2)OC1=O | 2 | 3.4 | > 50000 | Vd [4]: 2.1 L/kg; solubility kinetic [5]: 267 µg/mL (≈ 584 µM); Ratio EC50 (Hepatitis C virus [6]): 12.5; IC50 [7]: 23.4 nM; EC50 (Hepatitis C virus [8]): 6840 nM; AUC(0-t) at 24 h [9]: 1060 ng·h/mL; EC50 (Hepatitis C virus [10]): 20.4 nM; Ratio EC50 (Hepatitis C virus [11]): 6; half-life [12]: 1.33 h; bioavailability [13]: 72%; Cmax [14]: 269 ng/mL; EC50 (Hepatitis C virus [15]): 42.7 nM; half-life [16]: 1.1 h; clearance [17]: 56.5 mL/min/kg
CCN1CC2(CCN(C(=O)c3nn4c(C(F)(F)F)cc(C5CC5)cc4c3Cl)CC2)OC1=O | 20.6 | 5.9 | > 50000 | 
O=C1OC2(CCN(C(=O)c3nn4c(C(F)(F)F)cc(C5CC5)cc4c3Cl)CC2)CN1CCO | 23.2 | 78.5 | > 50000 | 
O=C1OC2(CCN(C(=O)c3nn4c(C(F)(F)F)cc(C5CC5)cc4c3Cl)CC2)CN1CC1CC1 | 18.1 | 23.4 | > 50000 | 
O=C1OC2(CCN(C(=O)c3nn4c(C(F)(F)F)cc(C5CC5)cc4c3Cl)CC2)CN1Cc1ccccc1 | 427 | 457 | > 50000 | 
O=C1CC2(CCN(C(=O)c3nn4c(C(F)(F)F)cc(C5CC5)cc4c3Cl)CC2)CN1 | 441 | 1580 | > 50000 | 
CN1CC2(CCN(C(=O)c3nn4c(C(F)(F)F)cc(C5CC5)cc4c3Cl)CC2)CC1=O | 184 | 69.2 | > 50000 | 
CN1C[C@@]2(CCN(C(=O)c3nn4c(C(F)(F)F)cc(C5CC5)cc4c3Cl)C[C@H]2O)OC1=O | 14.5 | 7 | > 50000 | 
CN1C[C@]2(CCN(C(=O)c3nn4c(C(F)(F)F)cc(C5CC5)cc4c3Cl)C[C@@H]2O)OC1=O | 3560 | 3990 | > 50000 | 
CN1C[C@@]2(CCN(C(=O)c3nn4c(C(F)(F)F)cc(C5CC5)cc4c3Cl)C[C@@H]2O)OC1=O | 10.9 | 6.1 | > 50000 | Vd [4]: 2 L/kg; solubility kinetic [5]: 310 µg/mL (≈ 656 µM); Ratio EC50 (Hepatitis C virus [6]): 27.3; IC50 [7]: 30.4 nM; EC50 (Hepatitis C virus [8]): 38000 nM; AUC(0-t) at 24 h [9]: 1530 ng·h/mL; EC50 (Hepatitis C virus [10]): 1130 nM; Ratio EC50 (Hepatitis C virus [11]): 185; half-life [12]: 2.2 h; bioavailability [13]: 49%; Cmax [14]: 344 ng/mL; EC50 (Hepatitis C virus [15]): 175 nM; half-life [16]: 2.05 h; clearance [17]: 25.7 mL/min/kg
CN1C[C@]2(CCN(C(=O)c3nn4c(C(F)(F)F)cc(C5CC5)cc4c3Cl)C[C@H]2O)OC1=O | 16.7 | 7.2 | > 50000 | 
